# Assay results taken from BindingDB's records for doi:10.1021/jm030438k (Harvard Medical School, 2004).
# Columns and labels:
# Dihydrofolate reductase = target: T1, Dihydrofolate reductase (Homo sapiens, UniProt P00374); assay: Inhibitory concentration against dihydrofolate reductase of rat liver
# T1 sequence (P00374 whole entry): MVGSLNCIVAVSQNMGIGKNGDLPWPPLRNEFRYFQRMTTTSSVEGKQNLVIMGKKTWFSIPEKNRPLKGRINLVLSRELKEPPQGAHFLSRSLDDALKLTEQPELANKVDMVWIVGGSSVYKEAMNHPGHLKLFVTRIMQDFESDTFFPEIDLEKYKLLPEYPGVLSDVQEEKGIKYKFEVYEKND
# [1] = target: Dihydrofolate reductase (Homo sapiens) (UniProt P00374); assay: Inhibitory concentration against dihydrofolate reductace enzyme of humans
Compound,IC50 (Dihydrofolate reductase) [nM],IC50 [1] [nM]
"COc1cc(Cc2cnc3nc(N)nc(N)c3c2C)cc(OC)c1 [6-(3,5-Dimethoxy-benzyl)-5-methyl-pyrido[2,3-d]pyrimidine-2,4-diamine]",1.5,
"Cc1ccc(Cl)cc1Cc1cnc2nc(N)nc(N)c2c1C [6-(5-Chloro-2-methyl-benzyl)-5-methyl-pyrido[2,3-d]pyrimidine-2,4-diamine]",,2.8
